Experimental data taken from patent US20210179585A1, “CRYSTAL FORM OF ABEMACICLIB MESYLATE, PREPARATION METHOD THEREFOR AND PHARMACEUTICAL COMPOSITION THEREOF” (Hangzhou SoliPharma Co., Ltd., priority 2018, published 2021).

Assay: Form stability experiment of crystalline forms (XRD crystalline form test after storage)
Type: physicochemical
Conditions: for Test result after 30 day (XRD crystalline form): 20 mg placed at 60° C. or at room temperature under dry conditions for 30 days; for form stability on storage (form kept or changed, appearance): one month in a dry environment at room temperature and at 60° C.
Experimental: X-ray powder diffraction (XRPD): performed on a Bruker D8 Advance diffractometer. Samples are tested at room temperature. Testing conditions: 2θ scan range 3 to 40°, step size 0.02° and speed 0.2 s/step.
Form stability experiment of crystalline forms: Placed 20 mg abemaciclib mesylate in Preparation Example 1, abemaciclib mesylate Form 1, Form 2, Form 5, Form 6, and Form 8 of the present invention at 60° C. or at room temperature under dry conditions for 30 days, then carried out XRD crystalline form test.

Row | Compound | Test result after 30 day (XRD crystalline form) (methanesulfonate) | form stability on storage (form kept or changed, appearance) (methanesulfonate) | further results
1 | CCN1CCN(Cc2ccc(Nc3ncc(F)c(-c4cc(F)c5nc(C)n(C(C)C)c5c4)n3)nc2)CC1.CS(=O)(=O)O [Abemaciclib mesylate Form 1, N-(5-((4-ethylpiperazin-1-yl)methyl)pyridin-2-yl)-5-fluoro-4-(4-fluoro-1-isopropyl-2-methyl-1H-benzo[d]imidazol-6-yl)pyrimidin-2-amine methanesulfonate] | Form 1 | kept its form unchanged | Test result after 30 day (XRD crystalline form) (listed as Form 1, methanesulfonate): still kept their original crystalline forms
2 | CCN1CCN(Cc2ccc(Nc3ncc(F)c(-c4cc(F)c5nc(C)n(C(C)C)c5c4)n3)nc2)CC1.CS(=O)(=O)O [Abemaciclib mesylate Form 2, N-(5-((4-ethylpiperazin-1-yl)methyl)pyridin-2-yl)-5-fluoro-4-(4-fluoro-1-isopropyl-2-methyl-1H-benzo[d]imidazol-6-yl)pyrimidin-2-amine methanesulfonate] | Form 2 | kept its form unchanged | Test result after 30 day (XRD crystalline form) (listed as Form 2, methanesulfonate): still kept their original crystalline forms
3 | CCN1CCN(Cc2ccc(Nc3ncc(F)c(-c4cc(F)c5nc(C)n(C(C)C)c5c4)n3)nc2)CC1.CS(=O)(=O)O [Abemaciclib mesylate Form 5, N-(5-((4-ethylpiperazin-1-yl)methyl)pyridin-2-yl)-5-fluoro-4-(4-fluoro-1-isopropyl-2-methyl-1H-benzo[d]imidazol-6-yl)pyrimidin-2-amine methanesulfonate] | Form 5 | kept its form unchanged | Test result after 30 day (XRD crystalline form) (listed as Form 5, methanesulfonate): still kept their original crystalline forms
4 | CCN1CCN(Cc2ccc(Nc3ncc(F)c(-c4cc(F)c5nc(C)n(C(C)C)c5c4)n3)nc2)CC1.CS(=O)(=O)O [Abemaciclib mesylate Form 6, N-(5-((4-ethylpiperazin-1-yl)methyl)pyridin-2-yl)-5-fluoro-4-(4-fluoro-1-isopropyl-2-methyl-1H-benzo[d]imidazol-6-yl)pyrimidin-2-amine methanesulfonate] | Form 6 | kept its form unchanged | Test result after 30 day (XRD crystalline form) (listed as Form 6, methanesulfonate): still kept their original crystalline forms

Continued, in another order:

Row | Test result after 30 day (XRD crystalline form) (methanesulfonate) | form stability on storage (form kept or changed, appearance) (methanesulfonate) | Compound | further results
5 | Form 8 | kept its form unchanged | CCN1CCN(Cc2ccc(Nc3ncc(F)c(-c4cc(F)c5nc(C)n(C(C)C)c5c4)n3)nc2)CC1.CS(=O)(=O)O [Abemaciclib mesylate Form 8, N-(5-((4-ethylpiperazin-1-yl)methyl)pyridin-2-yl)-5-fluoro-4-(4-fluoro-1-isopropyl-2-methyl-1H-benzo[d]imidazol-6-yl)pyrimidin-2-amine methanesulfonate] | Test result after 30 day (XRD crystalline form) (listed as Form 8, methanesulfonate): still kept their original crystalline forms
6 | Amorphous |  | CCN1CCN(Cc2ccc(Nc3ncc(F)c(-c4cc(F)c5nc(C)n(C(C)C)c5c4)n3)nc2)CC1.CS(=O)(=O)O [Abemaciclib mesylate, N-(5-((4-ethylpiperazin-1-yl)methyl)pyridin-2-yl)-5-fluoro-4-(4-fluoro-1-isopropyl-2-methyl-1H-benzo[d]imidazol-6-yl)pyrimidin-2-amine methanesulfonate] | form stability on storage (form kept or changed, appearance) (listed as amorphos abemaciclib mesylate, methanesulfonate): weak crystalline state and discoloration appeared; form stability on storage (form kept or changed, appearance) (listed as amorphous abemaciclib mesylate, methanesulfonate): weak crystalline state and discoloration appeared
